Reference: ChEMBL document CHEMBL1201862, “PubChem BioAssay data set” (2004)
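Cells were grown in 96-well plates and exposed to each compound for 48 hours at five concentrations; endpoints were interpolated linearly between bracketing concentrations, or set to the highest concentration if not reached. GI50 is the concentration that inhibits growth by half.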 Activity calls are given as the source filed them. Cut-off read from the data, not from the text of the source: active = GI50 up to about 1.1 µM and inactive = higher.

Experiments:
Assay in all cases: inhibition of tumour cell growth, NCI panel, 48 h
PC-3 = system: PC-3
DU-145 = system: DU-145
SR = system: SR
Malme-3M = system: Malme-3M
SF-268 = system: SF-268
HT-29 = system: HT-29
UO-31 = system: UO-31
RXF 393 = system: RXF 393
MOLT-4 = system: MOLT-4
ACHN = system: ACHN
KM12 = system: KM12
SK-MEL-28 = system: SK-MEL-28
MDA-MB-435 = system: MDA-MB-435
RPMI-8226 = system: RPMI-8226
U-251 = system: U-251
A549 = system: A549
BT-549 = system: BT-549
SK-MEL-5 = system: SK-MEL-5
OVCAR-3 = system: OVCAR-3
Hs-578T = system: Hs-578T
COLO 205 = system: COLO 205
NCI-H460 = system: NCI-H460
HOP-62 = system: HOP-62
SNB-19 = system: SNB-19
SF-539 = system: SF-539
MCF7 = system: MCF7
MDA-N = system: MDA-N
HL-60 = system: HL-60
HCT-15 = system: HCT-15
LOX IMVI = system: LOX IMVI
SNB-75 = system: SNB-75
SK-MEL-2 = system: SK-MEL-2
SF-295 = system: SF-295
EKVX = system: EKVX
CCRF-CEM = system: CCRF-CEM
NCI-H522 = system: NCI-H522
MDA-MB-231 = system: MDA-MB-231
SN12C = system: SN12C
HCC 2998 = system: HCC 2998
NCI/ADR-RES = system: NCI/ADR-RES
SW-620 = system: SW-620
IGROV-1 = system: IGROV-1
NCI-H23 = system: NCI-H23
OVCAR-5 = system: OVCAR-5
UACC-62 = system: UACC-62
TK-10 = system: TK-10
786-0 = system: 786-0
HCT-116 = system: HCT-116
K562 = system: K562
OVCAR-8 = system: OVCAR-8
UACC-257 = system: UACC-257
HOP-92 = system: HOP-92
M14 = system: M14
CAKI-1 = system: CAKI-1
OVCAR-4 = system: OVCAR-4
NCI-H226 = system: NCI-H226
A498 = system: A498

Question: Which results are given for CN(C)c1ccc(C(N)=O)cn1?
Answer: GI50 (PC-3): > 100 µM (inactive); GI50 (DU-145): > 100 µM (inactive); GI50 (SR): > 100 µM (inactive); GI50 (Malme-3M): > 100 µM (inactive); GI50 (SF-268): > 100 µM (inactive); GI50 (HT-29): > 100 µM (inactive); GI50 (UO-31): > 100 µM (inactive); GI50 (RXF 393): > 100 µM (inactive); GI50 (MOLT-4): > 100 µM (inactive); GI50 (ACHN): > 100 µM (inactive); GI50 (KM12): > 100 µM (inactive); GI50 (SK-MEL-28): > 100 µM (inactive); GI50 (MDA-MB-435): > 100 µM (inactive); GI50 (RPMI-8226): > 100 µM (inactive); GI50 (U-251): > 100 µM (inactive); GI50 (A549): > 100 µM (inactive); GI50 (BT-549): > 100 µM (inactive); GI50 (SK-MEL-5): > 100 µM (inactive); GI50 (OVCAR-3): > 100 µM (inactive); GI50 (Hs-578T): > 100 µM (inactive); GI50 (COLO 205): > 100 µM (inactive); GI50 (NCI-H460): > 100 µM (inactive); GI50 (HOP-62): > 100 µM (inactive); GI50 (SNB-19): > 100 µM (inactive); GI50 (SF-539): > 100 µM (inactive); GI50 (MCF7): > 100 µM (inactive); GI50 (MDA-N): > 100 µM (inactive); GI50 (HL-60): > 100 µM (inactive); GI50 (HCT-15): > 100 µM; GI50 (LOX IMVI): > 100 µM (inactive); GI50 (SNB-75): > 100 µM (inactive); GI50 (SK-MEL-2): > 100 µM (inactive); GI50 (SF-295): > 100 µM (inactive); GI50 (EKVX): > 100 µM (inactive); GI50 (CCRF-CEM): > 100 µM (inactive); GI50 (NCI-H522): > 100 µM (inactive); GI50 (MDA-MB-231): > 100 µM (inactive); GI50 (SN12C): > 100 µM (inactive); GI50 (HCC 2998): > 100 µM (inactive); GI50 (NCI/ADR-RES): > 100 µM (inactive); GI50 (SW-620): > 100 µM (inactive); GI50 (IGROV-1): > 100 µM (inactive); GI50 (NCI-H23): > 100 µM (inactive); GI50 (OVCAR-5): > 100 µM (inactive); GI50 (UACC-62): > 100 µM (inactive); GI50 (TK-10): > 100 µM (inactive); GI50 (786-0): > 100 µM (inactive); GI50 (HCT-116): > 100 µM (inactive); GI50 (K562): > 100 µM (inactive); GI50 (OVCAR-8): > 100 µM (inactive); GI50 (UACC-257): > 100 µM (inactive)

Question: What does the source list for NNC(=O)Cn1ccnn1?
Answer: GI50 (PC-3): > 100 µM (inactive); GI50 (DU-145): > 100 µM (inactive); GI50 (SR): > 100 µM (inactive); GI50 (Malme-3M): > 100 µM (inactive); GI50 (SF-268): > 100 µM (inactive); GI50 (HT-29): > 100 µM (inactive); GI50 (HOP-92): > 100 µM (inactive); GI50 (MOLT-4): > 100 µM (inactive); GI50 (ACHN): > 100 µM (inactive); GI50 (M14): > 100 µM (inactive); GI50 (KM12): > 100 µM (inactive); GI50 (SK-MEL-28): > 100 µM (inactive); GI50 (MDA-MB-435): > 100 µM (inactive); GI50 (RPMI-8226): > 100 µM (inactive); GI50 (U-251): > 100 µM (inactive); GI50 (A549): > 100 µM (inactive); GI50 (BT-549): > 100 µM (inactive); GI50 (SK-MEL-5): > 100 µM (inactive); GI50 (COLO 205): > 100 µM (inactive); GI50 (NCI-H460): > 100 µM (inactive); GI50 (HOP-62): > 100 µM (inactive); GI50 (SNB-19): > 100 µM (inactive); GI50 (MCF7): > 100 µM (inactive); GI50 (HL-60): > 100 µM (inactive); GI50 (HCT-15): > 100 µM; GI50 (LOX IMVI): > 100 µM (inactive); GI50 (SNB-75): > 100 µM (inactive); GI50 (SK-MEL-2): > 100 µM (inactive); GI50 (SF-295): > 100 µM (inactive); GI50 (EKVX): > 100 µM (inactive); GI50 (CCRF-CEM): > 100 µM (inactive); GI50 (NCI-H522): > 100 µM (inactive); GI50 (MDA-MB-231): > 100 µM (inactive); GI50 (SN12C): > 100 µM (inactive); GI50 (HCC 2998): > 100 µM (inactive); GI50 (NCI/ADR-RES): > 100 µM (inactive); GI50 (SW-620): > 100 µM (inactive); GI50 (IGROV-1): > 100 µM (inactive); GI50 (NCI-H23): > 100 µM (inactive); GI50 (OVCAR-5): > 100 µM (inactive); GI50 (CAKI-1): > 100 µM (inactive); GI50 (TK-10): > 100 µM (inactive); GI50 (786-0): > 100 µM (inactive); GI50 (K562): > 100 µM (inactive); GI50 (OVCAR-8): > 100 µM (inactive); GI50 (UACC-257): > 100 µM (inactive)

Question: Which GI50 (OVCAR-4) does the source give for CC(/C=C/C=C/C=C/C=C/C=C/C(=O)C1=C(O)C(CCC(=O)O)N(C)C1=O)=C\C(C)C(OC1CC(O)C(O)C(C)O1)C(C)C (stereo not drawn) here?
Answer: 5.75 µM (inactive)

Question: What about the GI50 (PC-3) of the same compound?
Answer: 3.32 µM (inactive)

Question: And the GI50 (DU-145)?
Answer: 3.42 µM (inactive)

Question: And the GI50 (SR)?
Answer: 3.85 µM (inactive)

Question: What about the GI50 (NCI-H226) of the same compound?
Answer: 3.48 µM (inactive)

Question: And the GI50 (Malme-3M)?
Answer: 2.23 µM (inactive)

Question: And the GI50 (SF-268)?
Answer: 2.84 µM (inactive)

Question: What about the GI50 (HT-29) of the same compound?
Answer: 3.02 µM (inactive)

Question: And the GI50 (UO-31)?
Answer: 3.3 µM (inactive)

Question: What about the GI50 (HOP-92) of the same compound?
Answer: 2.72 µM (inactive)

Question: What about the GI50 (RXF 393) of the same compound?
Answer: 3.07 µM (inactive)

Question: What about the GI50 (A498) of the same compound?
Answer: 2.84 µM (inactive)

Question: What about the GI50 (MOLT-4) of the same compound?
Answer: 2.82 µM (inactive)

Question: What about the GI50 (ACHN) of the same compound?
Answer: 3.13 µM (inactive)

Question: And the GI50 (M14)?
Answer: 3.26 µM (inactive)

Question: What about the GI50 (KM12) of the same compound?
Answer: 1.88 µM (inactive)

Question: What about the GI50 (SK-MEL-28) of the same compound?
Answer: 2.68 µM (inactive)

Question: What about the GI50 (MDA-MB-435) of the same compound?
Answer: 3 µM (inactive)

Question: What about the GI50 (RPMI-8226) of the same compound?
Answer: 3.13 µM (inactive)

Question: What about the GI50 (U-251) of the same compound?
Answer: 3.6 µM (inactive)

Question: And the GI50 (A549)?
Answer: 3.19 µM (inactive)

Question: And the GI50 (BT-549)?
Answer: 2.11 µM (inactive)

Question: What about the GI50 (SK-MEL-5) of the same compound?
Answer: 1.91 µM (inactive)

Question: And the GI50 (OVCAR-3)?
Answer: 1.98 µM (inactive)

Question: What about the GI50 (Hs-578T) of the same compound?
Answer: 5.85 µM (inactive)

Question: What about the GI50 (COLO 205) of the same compound?
Answer: 2.18 µM (inactive)

Question: And the GI50 (NCI-H460)?
Answer: 2.96 µM (inactive)

Question: What about the GI50 (HOP-62) of the same compound?
Answer: 1.87 µM (inactive)

Question: And the GI50 (SNB-19)?
Answer: 2.81 µM (inactive)

Question: And the GI50 (SF-539)?
Answer: 2.56 µM (inactive)

Question: And the GI50 (MCF7)?
Answer: 4.35 µM (inactive)

Question: And the GI50 (MDA-N)?
Answer: 2.97 µM (inactive)

Question: What about the GI50 (HL-60) of the same compound?
Answer: 2.43 µM (inactive)

Question: And the GI50 (HCT-15)?
Answer: 3.68 µM

Question: And the GI50 (LOX IMVI)?
Answer: 3.44 µM (inactive)

Question: And the GI50 (SNB-75)?
Answer: 3.89 µM (inactive)

Question: And the GI50 (SK-MEL-2)?
Answer: 1.78 µM (inactive)

Question: And the GI50 (SF-295)?
Answer: 3.8 µM (inactive)

Question: And the GI50 (EKVX)?
Answer: 3.31 µM (inactive)

Question: And the GI50 (CCRF-CEM)?
Answer: 3.26 µM (inactive)

Question: And the GI50 (NCI-H522)?
Answer: 2.91 µM (inactive)

Question: What about the GI50 (MDA-MB-231) of the same compound?
Answer: 2.9 µM (inactive)

Question: And the GI50 (SN12C)?
Answer: 3.33 µM (inactive)

Question: And the GI50 (HCC 2998)?
Answer: 2.15 µM (inactive)

Question: What about the GI50 (NCI/ADR-RES) of the same compound?
Answer: 13 µM (inactive)

Question: And the GI50 (SW-620)?
Answer: 4.13 µM (inactive)

Question: What about the GI50 (IGROV-1) of the same compound?
Answer: 1.82 µM (inactive)

Question: What about the GI50 (NCI-H23) of the same compound?
Answer: 2.62 µM (inactive)

Question: And the GI50 (OVCAR-5)?
Answer: 2.27 µM (inactive)

Question: What about the GI50 (CAKI-1) of the same compound?
Answer: 3.5 µM (inactive)

Question: And the GI50 (TK-10)?
Answer: 2.49 µM (inactive)

Question: What about the GI50 (786-0) of the same compound?
Answer: 3.15 µM (inactive)

Question: What about the GI50 (HCT-116) of the same compound?
Answer: 2.82 µM (inactive)

Question: And the GI50 (K562)?
Answer: 3.71 µM (inactive)

Question: What about the GI50 (OVCAR-8) of the same compound?
Answer: 3.74 µM (inactive)

Question: And the GI50 (UACC-257)?
Answer: 2.15 µM (inactive)
